As usually defined, the solubility is the dissolved amount per volume that the medium holds.

Data set [1] can be described thus: Solubility of the compound. Type of data set: physicochemical.
Data set [2] concerns SH-SY5Y. As to the kind of experiment: Neuroprotective activity against serum starvation-induced cell death in human SH-SY5Y cells assessed as increase in cell viability at 10 and 20 uM after 3 days by tetrazolium reduction assay. Type of data set: functional, cell-based.
Data set [3] concerns SH-SY5Y. The data set can be described thus: Neuroprotective activity against serum starvation-induced cell death in human SH-SY5Y cells assessed as increase in cell viability at 20 and 40 uM after 3 days by tetrazolium reduction assay. Type of data set: functional, cell-based.
The test system of data set [4] is SH-SY5Y. The data set can be described thus: Neuroprotective activity against serum starvation-induced cell death in human SH-SY5Y cells assessed as increase in cell […] at 20 and 40 uM after 3 days by tetrazolium reduction assay. Type of data set: functional, cell-based.

Each structure is given as a SMILES string. The source made the active and inactive calls. No cut-off for these calls is given here.

In the case of `c1ccc(-c2cn(-c3ccc4nc(N5CCOCC5)sc4c3)nn2)cc1`, in data set [1], the solubility result is “Insoluble”. Further, the outcome in the data set with SH-SY5Y [2] was inactive.
In the case of `COC(=O)c1cn(-c2ccc3nc(N4CCOCC4)sc3c2)nn1`, the solubility entry in data set [1] is listed as “Insoluble”. In addition, the result in the data set on SH-SY5Y [2] was inactive.
In the case of `CC(C)n1c(=O)c2ccccc2n1Cc1cn(-c2ccc3nc(N4CCOCC4)sc3c2)nn1`, the result in the data set with SH-SY5Y [3] and in the data set on SH-SY5Y [4] was Active. For the same molecule, the solubility in data set [1] (read-out: solubility) was more than 40 µM.

The values above are taken from ChEMBL document CHEMBL2069307, “Triazolbenzo[d]thiazoles: efficient synthesis and biological evaluation as neuroprotective agents” (Bioorg Med Chem Lett, 2012).
